Measured values as given in US20090233976A1, “Antimitotic Rhizoxin Deritivatives of Burkholderia Rhizoxina, Method for Producing Said Derivatives and Use Thereof” (priority 2005, published 2009).
In brackets after ≈: the same amount, converted by molar mass.

Key:
human cancer cell lines = settings: a number of human cancer cell lines, particularly vincristin-resistent cells; cited from earlier work
[1] = tested on: K-562 human leukemia cells; assay: antiproliferative test on K-562 human leukemia cells; assay type: cell-based; settings: K562
From the text: (§1) The inventive substances 1-4 show very strong antiproliferative and cytotoxic effects (e.g. for L-929 mouse fibroblast, K-562 human leukemia cells and HeLa human cervix carcinoma line) and an antifungal activity (e.g. against Glomerella cingulata, Penicillium notatum, Fusarium culmorum, Hamigera avellanea, Aspergillus fumigatus). (See Table 1.)
(§2) The examination of the antiproliferative and cytotoxic properties of the substances 1-4 has been performed via the method described in the literature (H. M. Dahse, B. Schlegel, U. Gräfe, Pharmazie 2001, 56, 489-491). The antifungal activity has been determined via the agar diffusion test. (See Table 2.)

[2] = cytotoxicity test on HeLa human cervix carcinoma line; assay type: cell-based; settings: HeLa human cervix carcinoma cells, cytotoxic
From the text: as §1, §2

L-929 mouse fibroblast = assay: antiproliferative test on L-929 mouse fibroblasts; assay type: cell-based; settings: L929
From the text: as §1, §2

| SMILES | activity against human cancer cell lines (human cancer cell lines) | GI50 [1] | CC50 [2] | GI50 (L-929 mouse fibroblast) |
| --- | --- | --- | --- | --- |
| CO[C@@H](/C(C)=C/C=C/C(C)=C/c1coc(C)n1)[C@@H](C)[C@@H]1C[C@H](O)[C@@]2(C)O[C@@H]2/C=C/[C@@H](C)[C@H]2C[C@H](CC(=O)O2)C[C@@H]2O[C@H]2C(=O)O1 [Rhizoxin] | high activity |  |  |  |
| COC(=O)C[C@@H]1C/C=C/C(=O)OC([C@H](C)[C@@H](O)/C(C)=C/C=C/C(C)=C/c2coc(C)n2)C[C@H](O)C2(C)O[C@@H]2/C=C/[C@@H](C)[C@H](O)C1 (some centres unmarked) [Substance 2] |  | 0.03 ng/mL (≈ 0.0478 nM) | 0.28 ng/mL (≈ 0.446 nM) | 50 ng/mL (≈ 79.6 nM) |
| COC(=O)C[C@@H]1C/C=C/C(=O)OC([C@H](C)[C@@H](OC)/C(C)=C/C=C/C(C)=C\c2coc(C)n2)C[C@H](O)C2(C)O[C@@H]2/C=C/[C@@H](C)[C@H](O)C1 (some centres unmarked) [Substance 4] |  | < 0.03 ng/mL |  | 12 ng/mL (≈ 18.7 nM) |
| COC(=O)C[C@@H]1C/C=C/C(=O)OC([C@H](C)[C@@H](OC)/C(C)=C/C=C/C(C)=C/c2coc(C)n2)C[C@H](O)C2(C)O[C@@H]2/C=C/[C@@H](C)[C@H](O)C1 (some centres unmarked) [Substance 3] |  | < 0.03 ng/mL | < 0.03 ng/mL | 50 ng/mL (≈ 77.9 nM) |
| CC(/C=C/C=C(\C)[C@H](O)[C@@H](C)C1C[C@H](O)C2(C)O[C@@H]2/C=C/[C@@H](C)[C@H](O)C[C@H](CC(=O)O)C/C=C/C(=O)O1)=C\c1coc(C)n1 (some centres unmarked) [Substance 1] |  | 15 ng/mL (≈ 24.4 nM) | 90 ng/mL (≈ 147 nM) |  |
